Data taken from PMC5814047, “Peptidic inhibitors of insulin-degrading enzyme with potential for dermatological applications discovered via phage display” (PLoS ONE, 2018).
Where “and” joins values, the source holds several entries; their conditions need not be identical. Identical values can stand only once. Bridge positions count the residues as written; N and C are the ends. Peptide text beside a SMILES is read from it.

Experiments:
[1] = test system: primary murine skin fibroblasts; assay: Insulin degradation in primary murine skin fibroblasts (ELISA of conditioned medium); assay type: cell-based; conditions: for Percent insulin remaining, Mean / Percent insulin remaining: P12-3A 100 uM, 100nM insulin added; for Percent insulin remaining, Mean: N 4; for Percent insulin remaining: conditioned medium, individual replicates
Experimental: (§1) Insulin promotes wound healing and overall skin health by affecting a number of processes, including cell proliferation, cell migration, and the production and secretion of ECM components, particularly type I collagen. We therefore assessed the ability of P12-3A to influence these processes in cultured skin fibroblasts and keratinocytes. To that end, primary mouse skin fibroblasts were grown for 4 d in multiple concentrations of insulin in the presence or absence of P12-3A, and insulin concentration over time was monitored by ELISA. […] Finally, the effects of P12-3A on collagen production in were assessed at both the transcriptional and the posttranslational level in confluent monolayers of fibroblasts. After 4 d of treatment with P12-3A (100 μM), mRNA levels for the major form of collagen, alpha-1 type I collagen (COL1A1), were quantified by RT-PCR and found to be increased to ~2.6 times the levels of untreated cells (Fig 4C). To assess overall levels of collagen production and secretion, we quantified levels of hydroxyproline, a modified amino acid present almost exclusively in collagen proteins. […] Western blotting also confirmed that mature, cell-associated collagen levels were increased in the presence of P12-3A (Fig 4E).
(§2) Fig 4 Effects of P12-3A on cultured skin cells. A, Insulin concentrations as a function of time in logarithmically growing primary murine skin fibroblasts in the absence or presence of P12-3A (100 μM). […] Data are mean ± SEM of 4 independent replications. *P<0.05, **P<0.01. B, Proliferation of cells in the absence or presence of P12-3A (100 μM). Data are mean ± SEM of 6 independent replications. […] C,D,E, P12-3A (100 μM) potentiates insulin-induced collagen production in skin fibroblasts. Collagen production was assessed by COL1A1 mRNA levels (C), levels of hydroxyproline secreted into the medium (D), and cell-associated mature alpha-1 type I collagen levels detected by Western blotting (E). Data are mean ± SD of 4 independent replications. *P<0.05, **P<0.01. […] Migration of HaCaT cells 48 h after induction of a scratch wound in the presence of the indicated quantities of insulin and/or P12-3A (100 μM). Data are mean ± SEM of 6 independent replications. *P<0.05, **P<0.01.
(§3) IDE activity was quantified by monitoring the degradation of Mca-[…](Dnp) (FRET1, 5 μM), fluoresceinated and biotinylated amyloid ß-protein (FAßB; 500 nM) or recombinant human insulin (50 nM) in PBS supplemented with 0.05% BSA. FRET1 degradation was measured by changes in fluorescence (λex = 340 nm, λem = 420 nm); FAßB degradation was monitored by fluorescence polarization (λex = 488 nm, λem = 525 nm), as described; and insulin degradation was quantified by ELISA. In vitro activity assays incorporated recombinant human IDE (1 nM) purified from bacteria. For quantitation of insulin degradation in primary murine skin fibroblasts, cells (1 x 10^5/well) were plated in 96-well plates and maintained in DMEM supplemented with 10% fetal bovine serum (FBS), 2mM glutamine, penicillin and streptomycin. After addition of insulin (10 nM or 100 nM), samples of conditioned medium were removed daily and quickly frozen, then insulin levels were quantified in parallel by ELISA according to manufacturer’s recommendations (Crystal Chem, Downers Grove, IL, USA). Assessment of the activity of P12-3A against a variety of matrix-metalloproteases was conducted using the Matrix Metalloproteinase (MMP) Inhibitor Profiling Kit, Fluorometric RED (Enzo Life Sciences, Inc., Farmingdale, NY, USA) according to manufacturer’s recommendations using the broad-spectrum MMP inhibitor, NNGH, as a positive control.

[2] = test system: COL1A1 mRNA in primary murine skin fibroblasts; assay: COL1A1 mRNA quantification by RT-PCR; assay type: cell-based
Experimental: as §1, §2
RNA was extracted from freshly lysed cells, reverse transcribed and amplified using the Ambion® Fast SYBR® Green Cells-to-CT™ Kit according to manufacturer’s recommendations (Thermo Fisher Scientific, Waltham, MA, USA). The quantitative real-time PCR reaction was conducted using a 7500 real-time PCR system and analyzed using System SDS software v2.0.5 (Applied Biosystems). Murine COL1A1 mRNA was detected using the following primers (forward: 5’-[…] and reverse: 5’ […]). Fold change differences between samples were determined using the comparative Ct (ΔΔCt) method, normalized to internal standards detected with the SYBR® Green Cells-to-CT™ Control Kit according to manufacturer’s recommendations (Thermo Fisher Scientific, Waltham, MA, USA) calculated by 2^-ΔΔCt.

[3] = test system: multiple matrix-metalloproteases (MMPs); assay: Matrix Metalloproteinase (MMP) Inhibitor Profiling Kit, Fluorometric RED; assay type: biochemical; set-up: % activity relative to DMSO-only controls, single runs / % activity relative to DMSO-only controls, Mean: concentration or dose not given beside the values; conditions: for % activity relative to DMSO-only controls, single runs: each run mean of duplicates
Experimental: as §3
Supplementary file pone.0193101.s004.tif: S4 Fig Selectivity of P12-3A for IDE vis-à-vis other proteases. Activity of P12-3A (100 μM) against (A) multiple matrix-metalloproteases (MMPs) and (B) multiple peptidases of different protease classes. […] Data are mean ± SD, n = 8–16 per group. P<0.05 by 2-tailed Student’s t-test. […] See Materials and Methods for details. NEP, neprilysin; mCatD, murine cathepsin D; hCatD, human cathepsin D. (TIF) Click here for additional data file.

[4] = P12-3A 100 uM, individual replicates

% activity relative to DMSO-only controls, Mean ([3]; MMP-1): 87%
% activity relative to DMSO-only controls, Mean ([3]; MMP-2): 101%
% activity relative to DMSO-only controls, Mean ([3]; MMP-3): 93%
% activity relative to DMSO-only controls, Mean ([3]; MMP-8): 114%
% activity relative to DMSO-only controls, Mean ([3]; MMP-9): 96%
% activity relative to DMSO-only controls, Mean ([3]; MMP-12): 89%
% activity relative to DMSO-only controls, Mean ([3]; MMP-13): 97%
% activity relative to DMSO-only controls, Mean ([3]; MMP-14): 117%
% activity relative to DMSO-only controls, Mean ([3]; MMP-19): 92%
Structure (SMILES): CC(C)C[C@H](NC(=O)[C@H](CO)NC(=O)[C@@H](N)CCC(N)=O)C(=O)N1CCC[C@H]1C(=O)N[C@@H](Cc1c[nH]c2ccccc12)C(=O)N[C@H]1CSSC[C@@H](C(=O)N[C@H](C(=O)N[C@H](C(N)=O)[C@@H](C)O)C(C)C)NC(=O)[C@H](Cc2c[nH]cn2)NC(=O)[C@@H]2CCCN2C(=O)[C@H](Cc2ccc(O)cc2)NC1=O [P12-3A] (H-QSLPWCYPHCVT-NH2; disulfide 6-10 (inferred))
insulin levels over time in cells ([1]; 100 μM P12-3A, 10 nM insulin, up to day 4, logarithmically growing cells): remain constant
Percent insulin remaining, Mean ([1]; t 0 d): 100.0%
Percent insulin remaining ([1]; t 0 d): 85.1403% and 114.724% and 102.178% and 97.9576%
Percent insulin remaining, Mean ([1]; t 1 d): 102.0%
Percent insulin remaining ([1]; t 1 d): 95.514% and 88.3018% and 126.115% and 98.0694%
Percent insulin remaining, Mean ([1]; t 2 d): 97.0%
Percent insulin remaining ([1]; t 2 d): 100.082% and 83.3067% and 102.861% and 101.75%
Percent insulin remaining, Mean ([1]; t 3 d): 91.0%
Percent insulin remaining ([1]; t 3 d): 84.576% and 69.9969% and 96.4916% and 112.935%
Percent insulin remaining, Mean ([1]; t 4 d): 96.0%
Percent insulin remaining ([1]; t 4 d): 100.148% and 97.4317% and 103.413% and 83.0078%
COL1A1 mRNA levels ([2]; 100 μM P12-3A, 4 d, confluent monolayers): ~ 2.6 times the levels of untreated cells
2^(-DCt), COL1A1 mRNA, Mean ([2]; P12-3A 100 uM, N 4): 0.490
DCt (COL1A1 mRNA vs internal standard ß-actin), Mean ([2]; P12-3A 100 uM, N 4): 1.082
2^(-DCt), COL1A1 mRNA [2, 4]: 0.454 and 0.570 and 0.306 and 0.629
DCt (COL1A1 mRNA vs internal standard ß-actin) [2, 4]: 1.14 and 0.81 and 1.71 and 0.67
COL1A1 mRNA, normalized, Mean ([2]; P12-3A 100 uM, normalized to control mean (1.000), N 4): 2.644
COL1A1 mRNA, normalized ([2]; P12-3A 100 uM, normalized to control mean (1.000), individual replicates): 2.451 and 3.081 and 1.651 and 3.395
Ct, COL1A1 mRNA, Mean ([2]; P12-3A 100 uM, raw Ct, N 4): 21.783
Ct, COL1A1 mRNA ([2]; P12-3A 100 uM, raw Ct, individual replicates): 22.07 and 21.23 and 21.93 and 21.9
% activity relative to DMSO-only controls, single runs ([3]; MMP-1): 105.8321% and 102.1980% and 83.6377% and 95.1040% and 96.8615% and 66.9344% and 67.7846% and 75.7623%
% activity relative to DMSO-only controls, single runs ([3]; MMP-2): 134.1641% and 93.5356% and 119.9423% and 88.3713% and 112.6968% and 77.2842% and 100.8622% and 77.2868%
% activity relative to DMSO-only controls, single runs ([3]; MMP-3): 94.6432% and 93.2955% and 89.9170% and 91.8916% and 91.6457% and 97.0044% and 92.2721% and 90.5895%
% activity relative to DMSO-only controls, single runs ([3]; MMP-8): 99.7304% and 123.9354% and 116.1961% and 104.6766% and 117.7573% and 98.6189% and 113.4567% and 134.2719%
% activity relative to DMSO-only controls, single runs ([3]; MMP-9): 99.3059% and 91.4690% and 98.9883% and 93.1451% and 94.2109% and 106.2066% and 100.0306% and 85.1586%
% activity relative to DMSO-only controls, single runs ([3]; MMP-12): 81.7387% and 84.5842% and 96.0954% and 81.6283% and 94.7460% and 96.1245% and 93.1866% and 82.8317%
% activity relative to DMSO-only controls, single runs ([3]; MMP-13): 85.9593% and 124.8564% and 91.0861% and 131.0115% and 78.1511% and 84.2743% and 87.8510% and 91.4553%
% activity relative to DMSO-only controls, single runs ([3]; MMP-14): 110.7407% and 115.7751% and 123.1998% and 129.5171% and 110.1580% and 106.8971% and 114.7013% and 125.4828%
% activity relative to DMSO-only controls, single runs ([3]; MMP-19): 98.6000% and 87.1925% and 92.0753% and 96.2890% and 86.4215% and 92.6495% and 89.4846% and 96.8071%
